The source of these data is ChEMBL document CHEMBL1201862, “PubChem BioAssay data set” (2004).

Some test systems named below: SF-268; HCT-15; SK-MEL-28; HCT-116; MOLT-4; NCI-H23; BT-549; UACC-62; T47D; SK-MEL-5; M14; EKVX; SNB-75; U-251; NCI-H226; NCI/ADR-RES; SF-539; Malme-3M; SR.
What all share (assay): NCI tumour cell line growth inhibition, 48 h

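Following 48 hours of exposure in 96-well plates, responses at five concentrations were used to interpolate endpoints linearly. At the GI50, growth is halved.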 Calls of active or inactive are those of the source. No stated cut-off is given here; in the data, active = GI50 up to about 1.1 µM and inactive = higher.

In the case of `Cc1ccsc1/C=N/Nc1nncc2ccccc12`, the GI50 was 93.3 µM (inactive) in the assay with SF-268; above 100 µM in the assay with HCT-15; > 100 µM (inactive) in the assay on SK-MEL-28; > 100 µM (inactive) in the assay on HCT-116; 44.8 µM (inactive) in the assay on MOLT-4; > 100 µM (inactive) with NCI-H23. For the same molecule, the GI50 is > 100 µM (inactive) in the assay on BT-549; > 100 µM (inactive) in the assay with UACC-62; > 100 µM (inactive) in the assay on T47D; 96.4 µM (inactive) in the assay with SK-MEL-5; > 100 µM (inactive) with M14; > 100 µM (inactive) with EKVX. Further, the GI50 is > 100 µM (inactive) with SNB-75, 58.3 µM (inactive) with U-251, > 100 µM (inactive) with NCI-H226 and > 100 µM (inactive) with NCI/ADR-RES.
`CCCNC(=O)c1cc(OC)c(OC)cc1NC(=O)C12CC3CC(CC(C3)C1)C2`: the GI50 in the assay on SF-268 was 17.6 µM (inactive); in the assay on HCT-15 it was 17 µM; in the assay with SK-MEL-28 it was 16.1 µM (inactive); in the assay with HCT-116, 16.8 µM (inactive); in the assay with MOLT-4, 29.9 µM (inactive); in the assay with NCI-H23, 16.8 µM (inactive). Also, the GI50 is 16.7 µM (inactive) in the assay on BT-549; 17.5 µM (inactive) in the assay on T47D; 22.2 µM (inactive) in the assay on SF-539; 40 µM (inactive) with SK-MEL-5; 15.2 µM (inactive) in the assay with M14; 18.2 µM (inactive) with EKVX. Moreover, the GI50 with Malme-3M is 17.8 µM (inactive); with U-251, 17 µM (inactive); in the assay on NCI-H226, 25.2 µM (inactive); in the assay with NCI/ADR-RES it was 19 µM (inactive).
Take `COC(=O)CCCC(=O)C1=NN(c2ccc(Cl)cc2)Cc2ccccc2N1`: the GI50 in the assay on SF-268 was > 100 µM (inactive); in the assay with HCT-15 it was 95.1 µM; in the assay with SK-MEL-28, > 100 µM (inactive); in the assay on HCT-116, > 100 µM (inactive); in the assay with MOLT-4 it was > 100 µM (inactive); in the assay on NCI-H23 it was > 100 µM (inactive). Further, the GI50 with BT-549 was > 100 µM (inactive); in the assay with UACC-62, 27.3 µM (inactive); in the assay on T47D, 5.56 µM (inactive); in the assay on SF-539, > 100 µM (inactive); in the assay with SK-MEL-5 it was > 100 µM (inactive); with M14, > 100 µM (inactive). Also, the GI50 in the assay with EKVX was 70.6 µM (inactive); in the assay with SNB-75 it was 88.3 µM (inactive); with U-251 it was > 100 µM (inactive); in the assay on NCI-H226, 51.4 µM (inactive); with NCI/ADR-RES, 79.4 µM (inactive).
In the case of `COC(=O)c1nc2c3c(cccc3c1C(=O)OC)Nc1ccccc1-2`, the GI50 is 38.5 µM (inactive) with SF-268; 59.7 µM (inactive) with SK-MEL-28; 25.2 µM (inactive) with HCT-116; 43.8 µM (inactive) in the assay with MOLT-4; 36 µM (inactive) in the assay on NCI-H23; 43.2 µM (inactive) with BT-549. Moreover, the GI50 is 10.7 µM (inactive) with UACC-62; 52.7 µM (inactive) in the assay with SF-539; 15.4 µM (inactive) in the assay with SK-MEL-5; 44.8 µM (inactive) with M14; 65.8 µM (inactive) in the assay on EKVX; 29.2 µM (inactive) with Malme-3M. Also, the GI50 is 34.5 µM (inactive) in the assay with SNB-75; 78.3 µM (inactive) in the assay with SR; 32.1 µM (inactive) in the assay with U-251; 65.3 µM (inactive) with NCI-H226; 17.8 µM (inactive) in the assay with NCI/ADR-RES.
In the case of `O=[N+]([O-])c1cccc2nc3ccccc3c(NCCCNc3c4ccccc4nc4cccc([N+](=O)[O-])c34)c12`, the GI50 in the assay with SF-268 is < 0.01 µM (active); in the assay on HCT-15 it was below 0.0138 µM; with SK-MEL-28 it was 0.0505 µM (active); in the assay with HCT-116, 0.0103 µM (active); in the assay on MOLT-4 it was 0.017 µM (active); in the assay on NCI-H23, 0.0182 µM (active). In addition, the GI50 in the assay on BT-549 was 0.0855 µM (active); in the assay with UACC-62 it was 0.0513 µM (active); in the assay on T47D, 0.0537 µM (active); in the assay with SF-539, 0.0161 µM (active); in the assay on SK-MEL-5, 0.0163 µM (active); in the assay with M14, < 0.0177 µM (active). For the same molecule, the GI50 in the assay on EKVX was 0.0312 µM (active); in the assay with Malme-3M, 0.0378 µM (active); in the assay on SNB-75, 0.0328 µM (active); in the assay with U-251, 0.0171 µM (active); in the assay on NCI-H226 it was 0.0697 µM (active); in the assay on NCI/ADR-RES, 0.249 µM (active).
`COc1ccc2c(-c3csc(-c4c[nH]c5ccc(Br)cc45)n3)c[nH]c2c1`: the GI50 with SF-268 was 25.9 µM (inactive); in the assay on HCT-15 it was 7.53 µM; in the assay with SK-MEL-28 it was > 100 µM (inactive); in the assay on HCT-116 it was 31.3 µM (inactive); in the assay with MOLT-4 it was 23 µM (inactive); in the assay with NCI-H23 it was 64.9 µM (inactive). In addition, the GI50 in the assay with BT-549 is 67.3 µM (inactive); in the assay on UACC-62, > 100 µM (inactive); in the assay on T47D it was 59.3 µM (inactive); in the assay with SK-MEL-5 it was > 100 µM (inactive); with M14, > 100 µM (inactive); in the assay on EKVX, 32.1 µM (inactive). Besides, the GI50 is 17.5 µM (inactive) in the assay with Malme-3M, 25.1 µM (inactive) in the assay with U-251, 45.4 µM (inactive) with NCI-H226 and 90.6 µM (inactive) with NCI/ADR-RES.
Consider `CC(=O)OCC1OC(On2ccccc2=S)C(OC(C)=O)C(OC(C)=O)C1OC(C)=O` (stereo not given), for which the GI50 is > 100 µM (inactive) with SF-268; above 100 µM in the assay with HCT-15; > 100 µM (inactive) in the assay with SK-MEL-28; > 100 µM (inactive) in the assay with HCT-116; 33.9 µM (inactive) with MOLT-4; > 100 µM (inactive) with NCI-H23. The GI50 in the assay on BT-549 is > 100 µM (inactive); in the assay with UACC-62, > 100 µM (inactive); in the assay with T47D, 87.1 µM (inactive); in the assay with SF-539 it was > 100 µM (inactive); with SK-MEL-5, > 100 µM (inactive); with M14 it was > 100 µM (inactive). Besides, the GI50 in the assay on EKVX, in the assay with Malme-3M, in the assay with SNB-75, in the assay with U-251 and with NCI/ADR-RES was > 100 µM (inactive) throughout.
For `CC1=C(C(=O)N(C(C)C)C(C)C)CC(C(=O)N(C(C)C)C(C)C)=C(C)N1`, the GI50 in the assay on SF-268 was > 100 µM (inactive); in the assay with HCT-15 it was above 100 µM; in the assay with HCT-116, > 100 µM (inactive); with MOLT-4 it was > 100 µM (inactive); with NCI-H23 it was > 100 µM (inactive); with BT-549 it was > 100 µM (inactive). Further, the GI50 was > 100 µM (inactive) in the assay on UACC-62; 49.3 µM (inactive) in the assay on T47D; > 100 µM (inactive) in the assay on SF-539; > 100 µM (inactive) with SK-MEL-5; > 100 µM (inactive) with M14; > 100 µM (inactive) in the assay with EKVX. In addition, the GI50 with SNB-75 was 16.4 µM (inactive); in the assay with U-251 it was > 100 µM (inactive); with NCI-H226 it was > 100 µM (inactive); with NCI/ADR-RES, > 100 µM (inactive).
Turning to `COC(=O)C1=C(C(=O)OC)C2CCC1CC2=O` (stereo not given), the GI50 with SF-268 is > 100 µM (inactive); in the assay with HCT-15, 83.8 µM; with SK-MEL-28, > 100 µM (inactive); in the assay on HCT-116, > 100 µM (inactive); in the assay on MOLT-4, 45.5 µM (inactive); with NCI-H23 it was > 100 µM (inactive). The GI50 in the assay with BT-549, in the assay with UACC-62, in the assay with SF-539, in the assay with SK-MEL-5, in the assay with M14 and in the assay on EKVX was > 100 µM (inactive) in each case. In addition, the GI50 is > 100 µM (inactive) in the assay with Malme-3M; > 100 µM (inactive) in the assay on SNB-75; 61.2 µM (inactive) in the assay on SR; > 100 µM (inactive) in the assay with U-251; > 100 µM (inactive) with NCI-H226; > 100 µM (inactive) in the assay with NCI/ADR-RES.
With `Cc1ccc(C(=O)Nc2ccc(S(=O)(=O)O)c3cc(S(=O)(=O)O)cc(S(=O)(=O)O)c23)cc1NC(=O)Nc1cc(C(=O)Nc2ccc(S(=O)(=O)O)c3cc(S(=O)(=O)O)cc(S(=O)(=O)O)c23)ccc1C`, the GI50 was > 87.5 µM (inactive) in the assay with SF-268; above 87.5 µM in the assay on HCT-15; > 87.5 µM (inactive) with SK-MEL-28; > 87.5 µM (inactive) in the assay with HCT-116; > 87.5 µM (inactive) in the assay with MOLT-4; > 87.5 µM (inactive) in the assay with NCI-H23. Also, the GI50 with BT-549, with UACC-62, in the assay on T47D, in the assay on SK-MEL-5, with M14 and with Malme-3M was > 87.5 µM (inactive) throughout. The GI50 in the assay with SNB-75, with SR, in the assay on U-251 and with NCI-H226 was > 87.5 µM (inactive) each time.
Consider `Cc1nc(=O)c2cc(CN(C)c3ccc(C(=O)N[C@@H](CCC(=O)O)C(=O)O)s3)ccc2[nH]1` [RALTITREXED], for which the GI50 in the assay with SF-268 is 12.8 µM (inactive); with HCT-15, above 100 µM; in the assay on SK-MEL-28, > 100 µM (inactive); in the assay on HCT-116 it was 0.264 µM (active); in the assay with MOLT-4 it was 0.0977 µM (active); with BT-549, 71.4 µM (inactive). Besides, the GI50 was 0.193 µM (active) in the assay with UACC-62; > 100 µM (inactive) in the assay on T47D; 84.7 µM (inactive) in the assay on SF-539; 0.0931 µM (active) in the assay with M14; > 100 µM (inactive) in the assay with EKVX; 0.303 µM (active) in the assay on Malme-3M. Besides, the GI50 in the assay with SNB-75 was 6.79 µM (inactive); in the assay with SR, 0.0399 µM (active); with U-251, 0.546 µM (active); with NCI-H226, > 100 µM (inactive).
On to `Cc1c([C@H](C)[C@@H]2NC[C@@H](C)C[C@H]2O)ccc2c1C[C@H]1[C@H]2CC=C2C[C@@H](O)CC[C@@]21C` [VERATRAMINE], for which the GI50 in the assay with SF-268 is 27.7 µM (inactive); in the assay on HCT-15, 20.2 µM; in the assay on SK-MEL-28, 17.3 µM (inactive); in the assay on HCT-116 it was 14.3 µM (inactive); in the assay on MOLT-4 it was 13.1 µM (inactive); with NCI-H23, 11.7 µM (inactive). The GI50 in the assay on BT-549 was 21.1 µM (inactive); with UACC-62, 13 µM (inactive); in the assay with T47D, 12.9 µM (inactive); in the assay with SK-MEL-5, 10.8 µM (inactive); in the assay on M14 it was 15.7 µM (inactive); with EKVX, 2.34 µM (inactive). The GI50 in the assay on Malme-3M is 16.2 µM (inactive); in the assay with SNB-75, 17.5 µM (inactive); in the assay with U-251 it was 14 µM (inactive); in the assay on NCI-H226 it was 11.9 µM (inactive); in the assay on NCI/ADR-RES it was 23.4 µM (inactive).
